Source: US20200397691A1, “NICOTINE MOUTH SPRAY” (Fertin Pharma A/S, priority 2017, published 2020)

Details: nicotine concentration increased from 100 microgram/mL to 14,000 microgram/mL

For `CN1CCCC1c1cccnc1` (stereo not shown) [nicotine], the “Decrease of permeability of nicotine across the buccal mucosa (factor)” value was “two”.
